Measurements published in patent publication US9243247B2, “Composition for promoting apoptosis or inhibiting cell growth, comprising epstein-barr virus microrna” (Catholic University Industry Academic Cooperation Foundation, priority 2011, dated 2016).

What was measured:
Assay type in all cases: cell-based
AGS cell strain [1] = experiment: Cell growth test (CCK-8 assay) after transfection of BART miRNA mimics; details: mimic 10 nM, 72 hours after transfection, relative to scrambled control (=1), n=9
Protocol: An AGS cell strain (Korean Cell Line Bank), which is a stomach cancer cell strain, was cultured in an RPMI1640 (Gibco) culture medium including 10% fetal bovine serum. Mature type synthesized BART miRNAs were transfected to the AGS cell strain by using G-fectin (Genolution) according to a protocol of the manufacture.
To investigate the effect of individual EBV BART miRNAs on the AGS cell strain, the synthesized miRNAs were transfected to the AGS cell strain and, after 72 hours, cells were counted by CCK-8 assay.
Immediately after the AGS cell strain, which is an EBV-negative cell strain, was divided into 96-well plate having 1×10^3 cells/well, a synthesized miRNA (10 nM) was transfected by using G-fectin. After the transfection, according to the experimental objective, the cells were cultured at 37° C. in an incubator, and then CCK-8 was divided among the wells by allocating 10 μl of CCK-8 to each well and the resulting mixture was cultured in an incubator at 37° C. for two hours. Then, the light absorbance was measured with an ELISA measuring instrument.
By the method described in Example 3, miR-BART5-5p mimic or miR-BART15-3p mimic (10 nM) were transfected to the AGS cell strain, and the effect thereof on cell growth was investigated over time.
miR-BART5-5p, miR-BART15-3p, and miR-BART20-3p were transfected to the AGS cell strain (1×10^3 cells/well) in a concentration of 1, 3, 10, and 30 nM, and the effect on cell growth was investigated. Immediately after the AGS cell strain was divided into a 96-well plate such that 1×10^3 AGS cells were allocated to each well, a synthesized miRNA was transfected by using G-fectin. Seventy two hours after the transfection, CCK-8 was divided among the wells by allocating 10 μl of CCK-8 to each well, and the resulting mixture was cultured at 37° C. in an incubator for two hours.

AGS cell strain [2] = experiment: Measurement of apoptosis (Annexin V staining, FACS); details: for Relative Apoptotic cell: AGS, mimic 10 nM, 10 uM 5-FU 24 h after transfection, then 48 hours, Annexin V, relative to scrambled control (=1), n=9; for effect on cell growth and apoptosis (summary statement): mimics transfected to AGS, tumor cell strain not infected with EBV
Protocol: Immediately after the AGS cell strain, which is an EBV-negative cell strain, was divided was divided into a 6-well plate such that 2×10^5 AGS cells were allocated to each well, a synthesized miRNA (10 nM) was transfected by using G-fectin and the resulting mixture was cultured at 37 t in an incubatorTwenty four hours after the transfection, 10 uM of 5-FU was treated and the resulting mixture was cultured in an incubator at 37° C. for 48 hours. The cells were detached by using Trypsin-EDTA and washed with PBS two times. Afterwards, the cells were treated with a PE Annexin V Apoptosis Detection Kit and the changed ratio of apoptotic cell was investigated by FACS (FIG. 7).
Immediately after the AGS cell strain, which is an EBV-negative cell strain, is divided into a 6-well plate such that 2×10^5 AGS cells were allocated to each well, a synthesized miRNA (10 nM) was transfected by using G-fectin and the resulting mixture was cultured at 37° C. Twenty four hours after the transfection, 10 uM of 5-FU, which is an anti-cancer agent, was treated and the resulting mixture was cultured in an incubator at 37° C. for 48 hours. The cells were detached by using Trypsin-EDTA and washed with PBS two times. Afterwards, the cells were treated with a PE Annexin V Apoptosis Detection Kit and the ratio of cells where apoptosis took place was measured by FACS.

AGS cell strain [3] = experiment: Effect on cell cycle (propidium iodide staining, FACS, sub G1); details: mimic 10 nM, 10 uM 5-FU 24 h after transfection, then 48 hours, relative to scrambled control (=1)
Protocol: The AGS cells were divided into a 96-well plate such that 2×10^5 AGS cells were allocated to each well, and synthesized miRNAs (10 nM) were transfected and cultured at 37° C. in an incubator. Twenty four hours after the transfection, 10 uM of 5-FU, which is an anti-cancer agent, was treated in one case or not treated in another case, and then the resulting mixture was cultured in an incubator at 37° C. for 48 hours. The cells were detached by using Trypsin-EDTA and washed with PBS two times.
Immediately after the AGS cell strains, which are EBV-negative cell strains, were divided into a 6-well plate such that 2×10^5 AGS cells were allocated to each well, a synthesized miRNA (10 nM) was transfected by using G-fectin and cultured at 37° C. in an incubator. Twenty four hours after the transfection, 10 uM of 5-FU was treated and the resulting mixture was cultured at 37° C. in an incubator for 48 hours. The cells were detached by using Trypsin-EDTA and washed with PBS two times. Afterwards, DNA was stained by propidium iodide staining and the ratio of cells where cell cycle was changed was investigated by FACS.

Substance	Relative Cell Growth (AGS cell strain [1])	Relative Apoptotic cell (AGS cell strain [2])	Relative Sub G1 (AGS cell strain [3])	further results
BART7-3p: EBV BART miRNA mimic, double stranded RNA; sense SEQ NO: 43, antisense SEQ NO: 44 (sense CAUCAUAGUCCAGUGUCCAGGG; antisense CCCUGGACACUGGACUAUGAUG; chemistry not given here)	1.156	1.107	0.9393	–
BART7-5p: EBV BART miRNA mimic, double stranded RNA; sense SEQ NO: 41, antisense SEQ NO: 42 (sense CCUGGACCUUGACUAUGAAACA; antisense UGUUUCAUAGUCAAGGUCCAGG; chemistry not given here)	1.539	1.097	0.9918	Relative Apoptotic cell (AGS cell strain [2]; listed as 7-5p): significantly higher; effect on cell growth and apoptosis (summary statement) (AGS cell strain [2]): inhibit cell growth and promote apoptosis
BART8-3p: EBV BART miRNA mimic, double stranded RNA; sense SEQ NO: 47, antisense SEQ NO: 48 (sense GUCACAAUCUAUGGGGUCGUAGA; antisense UCUACGACCCCAUAGAUUGUGAC; chemistry not given here)	1.396	1.072	0.9616	–
BART8-5p: EBV BART miRNA mimic, double stranded RNA; sense SEQ NO: 45, antisense SEQ NO: 46 (sense UACGGUUUCCUAGAUUGUACAG; antisense CUGUACAAUCUAGGAAACCGUA; chemistry not given here)	1.448	0.9757	1.013	–
BART9-3p: EBV BART miRNA mimic, double stranded RNA; sense SEQ NO: 51, antisense SEQ NO: 52 (sense UAACACUUCAUGGGUCCCGUAGU; antisense ACUACGGGACCCAUGAAGUGUUA; chemistry not given here)	1.569	0.7948	0.8669	–
BART9-5p: EBV BART miRNA mimic, double stranded RNA; sense SEQ NO: 49, antisense SEQ NO: 50 (sense UACUGGACCCUGAAUUGGAAAC; antisense GUUUCCAAUUCAGGGUCCAGUA; chemistry not given here)	1.482	1.25	1.005	Relative Apoptotic cell (AGS cell strain [2]; listed as 9-5p): significantly higher; effect on cell growth and apoptosis (summary statement) (AGS cell strain [2]): inhibit cell growth and promote apoptosis
BART10-3p: EBV BART miRNA mimic, double stranded RNA; sense SEQ NO: 59, antisense SEQ NO: 60 (sense UACAUAACCAUGGAGUUGGCUGU; antisense ACAGCCAACUCCAUGGUUAUGUA; chemistry not given here)	1.591	0.8971	0.8394	–
BART10-5p: EBV BART miRNA mimic, double stranded RNA; sense SEQ NO: 57, antisense SEQ NO: 58 (sense GCCACCUCUUUGGUUCUGUACA; antisense UGUACAGAACCAAAGAGGUGGC; chemistry not given here)	1.646	0.8373	0.833	–
BART11-3p: EBV BART miRNA mimic, double stranded RNA; probably sense SEQ NO: 63, antisense SEQ NO: 64 (printed as BART11-5p) (sense ACGCACACCAGGCUGACUGCC; antisense GGCAGUCAGCCUGGUGUGCGU; chemistry not given here)	0.9459	1.058	1.128	–
BART11-5p: EBV BART miRNA mimic, double stranded RNA; sense SEQ NO: 61, antisense SEQ NO: 62 (sense UCAGACAGUUUGGUGCGCUAGUUG; antisense CAACUAGCGCACCAAACUGUCUGA; chemistry not given here)	1.08	1.006	1.081	–
BART12-3p: EBV BART miRNA mimic, double stranded RNA; sense SEQ NO: 67, antisense SEQ NO: 68 (sense UCCUGUGGUGUUUGGUGUGGUU; antisense AACCACACCAAACACCACAGGA; chemistry not given here)	1.102	1.084	1.317	Relative Sub G1 (AGS cell strain [3]; listed as 12-3p): increased
BART12-5p: EBV BART miRNA mimic, double stranded RNA; sense SEQ NO: 65, antisense SEQ NO: 66 (sense ACCCGCCCAUCACCACCGGAC; antisense GUCCGGUGGUGAUGGGCGGGU; chemistry not given here)	1.159	0.9458	1.135	Relative Sub G1 (AGS cell strain [3]; listed as 12-5p): increased
BART13-3p: EBV BART miRNA mimic, double stranded RNA; sense SEQ NO: 79, antisense SEQ NO: 80 (sense UGUAACUUGCCAGGGACGGCUGA; antisense UCAGCCGUCCCUGGCAAGUUACA; chemistry not given here)	1.255	1.187	0.9813	Relative Apoptotic cell (AGS cell strain [2]; listed as 13-3p): significantly higher; effect on cell growth and apoptosis (summary statement) (AGS cell strain [2]): inhibit cell growth and promote apoptosis
BART13-5p: EBV BART miRNA mimic, double stranded RNA; sense SEQ NO: 77, antisense SEQ NO: 78 (sense AACCGGCUCGUGGCUCGUACAG; antisense CUGUACGAGCCACGAGCCGGUU; chemistry not given here)	1.326	1.077	1.178	Relative Apoptotic cell (AGS cell strain [2]; listed as 13-5p): significantly higher; effect on cell growth and apoptosis (summary statement) (AGS cell strain [2]): inhibit cell growth and promote apoptosis; Relative Sub G1 (AGS cell strain [3]; listed as 13-5p): increased
